Data from patent US20240384268A1, “Oligonucleotides” (Hudson Institute of Medical Research, priority 2021, published 2024).

Molecular target: T1, human TLR9 (Homo sapiens, UniProt Q9NR96)
T1 construct: HA; host or cells: 293XL-hTLR9-HA (HEK293)
T1 sequence (Q9NR96 26-1032): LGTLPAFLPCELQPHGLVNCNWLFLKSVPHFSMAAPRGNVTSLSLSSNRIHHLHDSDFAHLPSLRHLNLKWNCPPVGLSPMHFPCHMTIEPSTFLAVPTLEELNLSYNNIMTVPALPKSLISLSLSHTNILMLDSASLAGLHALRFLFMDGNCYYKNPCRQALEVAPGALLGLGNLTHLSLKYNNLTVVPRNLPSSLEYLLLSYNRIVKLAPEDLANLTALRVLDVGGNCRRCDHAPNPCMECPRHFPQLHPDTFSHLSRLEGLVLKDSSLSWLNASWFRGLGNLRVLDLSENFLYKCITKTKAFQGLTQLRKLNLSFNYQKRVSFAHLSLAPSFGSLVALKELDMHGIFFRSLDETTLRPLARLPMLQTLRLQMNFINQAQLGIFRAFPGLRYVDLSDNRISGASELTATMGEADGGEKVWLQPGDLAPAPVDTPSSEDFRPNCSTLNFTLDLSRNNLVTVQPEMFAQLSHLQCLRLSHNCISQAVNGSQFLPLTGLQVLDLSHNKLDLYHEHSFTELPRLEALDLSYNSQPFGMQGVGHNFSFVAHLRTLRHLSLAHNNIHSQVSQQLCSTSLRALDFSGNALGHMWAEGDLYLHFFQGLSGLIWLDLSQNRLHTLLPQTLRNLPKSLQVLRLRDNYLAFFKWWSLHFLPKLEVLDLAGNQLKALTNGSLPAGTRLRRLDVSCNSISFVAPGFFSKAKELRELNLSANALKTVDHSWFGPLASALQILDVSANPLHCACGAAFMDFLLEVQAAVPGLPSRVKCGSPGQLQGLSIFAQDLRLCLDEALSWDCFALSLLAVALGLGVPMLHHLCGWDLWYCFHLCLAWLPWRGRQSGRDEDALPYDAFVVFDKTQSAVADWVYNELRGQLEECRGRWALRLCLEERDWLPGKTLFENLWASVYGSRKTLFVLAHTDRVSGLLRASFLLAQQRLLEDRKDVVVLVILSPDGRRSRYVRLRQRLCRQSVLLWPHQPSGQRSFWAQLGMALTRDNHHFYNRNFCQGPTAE
Experiment: HEK-TLR9 NF-κB-luciferase reporter, ODN2006 stimulation
Type: cell-based
Details: averaged NF-κB-Luciferase relative to ODN2006 condition; for TLR9 100 nM: MOE-modified ASO at 100 nM; for TLR9 500 nM: MOE-modified ASO at 500 nM

“ACTGACTGTCTTGAGGGTTC (antisense; 2'-MOE modified, pattern not given here) [MB21D1-1483 MOE]” was tested, and the “TLR9 100 nM” value was 0.424 and the “TLR9 500 nM” value was 0.291.
With “ATGTCCCCTGTTGACTGGTC (antisense; 2'-MOE modified, pattern not given here) [HPRT-489 MOE]” the “TLR9 100 nM” value was 0.968 and the “TLR9 500 nM” value was 0.953.
With “GAGGTCTTGGCTTCGTGGAG (antisense; 2'-MOE modified, pattern not given here) [MB21D1-523 MOE]” the “TLR9 100 nM” value was 0.888 and the “TLR9 500 nM” value was 0.650.
For “GATGGCCTCCCATCTCCTTC (antisense; 2'-MOE modified, pattern not given here) [HPRT-329 MOE]”, the “TLR9 100 nM” value was 0.662 and the “TLR9 500 nM” value was 1.268.
With “TTCTGCAGCTTCCTTGTCCT (antisense; 2'-MOE modified, pattern not given here) [CTNN2B-2136 MOE]” the “TLR9 100 nM” value was 0.746 and the “TLR9 500 nM” value was 0.467.
In the case of “TAGTCAAGGGCATATCCTAC (antisense; 2'-MOE modified, pattern not given here) [HPRT-732 MOE]”, the “TLR9 100 nM” value is reported as 0.787 and the “TLR9 500 nM” value is reported as 0.462.
In the case of “GCCGCTTTTCTGTCTGGTTC (antisense; 2'-MOE modified, pattern not given here) [CTNN2B-311 MOE]”, the “TLR9 100 nM” value is reported as 0.684 and the “TLR9 500 nM” value is reported as 1.018.
“TTGCCATGCTGGCTCGGACT (antisense; 2'-MOE modified, pattern not given here) [CAMSAP1-2584 MOE]” was tested, and the “TLR9 100 nM” value was 0.516 and the “TLR9 500 nM” value was 0.534.
“TGTGATGGCCTCCCATCTCC (antisense; 2'-MOE modified, pattern not given here) [HPRT-332 MOE]” was tested, and the “TLR9 100 nM” value was 0.674 and the “TLR9 500 nM” value was 0.782.
“GGTGGTCCACAACCCCTTTC (antisense; 2'-MOE modified, pattern not given here) [MB21D1-697 MOE]” was tested, and the “TLR9 100 nM” value was 0.456 and the “TLR9 500 nM” value was 0.071.
For “ACAACCCCTTTCACCATCCC (antisense; 2'-MOE modified, pattern not given here) [MB21D1-689 MOE]”, the “TLR9 100 nM” value was 0.785 and the “TLR9 500 nM” value was 0.499.
“ACCCACTTGGCAGACCATCA (antisense; 2'-MOE modified, pattern not given here) [CTNN2B-1575 MOE]” was tested, and the “TLR9 100 nM” value was 0.725 and the “TLR9 500 nM” value was 0.556.
With “ATGTCCCGCCACTGGATGCT (antisense; 2'-MOE modified, pattern not given here) [EGFR-727 MOE]” the “TLR9 100 nM” value was 0.801 and the “TLR9 500 nM” value was 0.423.
With “ATCCAACACTTCGTGGGGTC (antisense; 2'-MOE modified, pattern not given here) [HPRT-668 MOE]” the “TLR9 100 nM” value was 0.287 and the “TLR9 500 nM” value was 0.618.
With “TCGCACTTCAGTCTGAGCAG (antisense; 2'-MOE modified, pattern not given here) [MB21D1-719 MOE]” the “TLR9 100 nM” value was 0.521 and the “TLR9 500 nM” value was 0.266.
In the case of “CTTACTTTCCGAGGTGTCCA (antisense; 2'-MOE modified, pattern not given here) [CAMSAP1-1739 MOE]”, the “TLR9 100 nM” value is reported as 0.647 and the “TLR9 500 nM” value is reported as 0.531.
With “GTGTCCTTGCACGTGGCTTC (antisense; 2'-MOE modified, pattern not given here) [EGFR-1015 MOE]” the “TLR9 100 nM” value was 0.784 and the “TLR9 500 nM” value was 0.641.
For “TGTCCTTGCACGTGGCTTCG (antisense; 2'-MOE modified, pattern not given here) [EGFR-1014 MOE]”, the “TLR9 100 nM” value was 0.764 and the “TLR9 500 nM” value was 0.623.
“TTGCACACTTCGTACCCAAA (antisense; 2'-MOE modified, pattern not given here) [CAMSAP1-4915 MOE]” was tested, and the “TLR9 100 nM” value was 0.894 and the “TLR9 500 nM” value was 0.524.
“TGTCTTCATCGGCCCTGCCT (antisense; 2'-MOE modified, pattern not given here) [CAMSAP1-2112 MOE]” was tested, and the “TLR9 100 nM” value was 0.697 and the “TLR9 500 nM” value was 0.480.
With “CTCTTGAAGCATCGTATCAC (antisense; 2'-MOE modified, pattern not given here) [CTNN2B-3648 MOE]” the “TLR9 100 nM” value was 0.721 and the “TLR9 500 nM” value was 0.472.
With “TTGGCTCGGCTTGCCTACTT (antisense; 2'-MOE modified, pattern not given here) [CAMSAP1-5594 MOE]” the “TLR9 100 nM” value was 0.705 and the “TLR9 500 nM” value was 0.445.
In the case of “TAGGCACTTTGCCTCCTTCT (antisense; 2'-MOE modified, pattern not given here) [EGFR-2859 MOE]”, the “TLR9 100 nM” value is reported as 0.808 and the “TLR9 500 nM” value is reported as 0.914.
For “ACAGTGTTGAGATACTCGGG (antisense; 2'-MOE modified, pattern not given here) [EGFR-3652 MOE]”, the “TLR9 100 nM” value was 0.436 and the “TLR9 500 nM” value was 0.194.
“CGTGTCTGGAAGCTTCCTTT (antisense; 2'-MOE modified, pattern not given here) [CTNN2B-808 MOE]” was tested, and the “TLR9 100 nM” value was 0.568 and the “TLR9 500 nM” value was 0.259.
For “GGCATCCACCACGTCGTCCA (antisense; 2'-MOE modified, pattern not given here) [EGFR-3266 MOE]”, the “TLR9 100 nM” value was 0.742 and the “TLR9 500 nM” value was 0.481.
For “CACCCACTTGGCAGACCATC (antisense; 2'-MOE modified, pattern not given here) [CTNN2B-1576 MOE]”, the “TLR9 100 nM” value was 0.665 and the “TLR9 500 nM” value was 0.677.
In the case of “GGAGCTTCGAGGCCCCAGGC (MOE modified, pattern not given here) [MB21D1-616 MOE]”, the “TLR9 100 nM” value is reported as 0.588 and the “TLR9 500 nM” value is reported as 0.168.
With “GAACCACGTCTGCTCTAACA (antisense; 2'-MOE modified, pattern not given here) [CAMSAP1-1635 MOE]” the “TLR9 100 nM” value was 0.588 and the “TLR9 500 nM” value was 0.466.
“AATCCGCCCAAAGGGAACTG (antisense; 2'-MOE modified, pattern not given here) [HPRT-1027 MOE]” was tested, and the “TLR9 100 nM” value was 0.591 and the “TLR9 500 nM” value was 0.591.
With “CAGATAGCACCTTCAGCACT (antisense; 2'-MOE modified, pattern not given here) [CTNN2B-1294 MOE]” the “TLR9 100 nM” value was 0.583 and the “TLR9 500 nM” value was 0.484.
With “TCCAACACTTCGTGGGGTCC (antisense; 2'-MOE modified, pattern not given here) [HPRT-667 MOE]” the “TLR9 100 nM” value was 0.792 and the “TLR9 500 nM” value was 0.616.
With “CAAGGCCCTTCGCACTTCTT (antisense; 2'-MOE modified, pattern not given here) [EGFR-1225 MOE]” the “TLR9 100 nM” value was 0.624 and the “TLR9 500 nM” value was 0.712.
In the case of “GCTTCAGGCGCTGCCTTGCC (antisense; 2'-MOE modified, pattern not given here) [CAMSAP1-2709 MOE]”, the “TLR9 100 nM” value is reported as 0.833 and the “TLR9 500 nM” value is reported as 0.824.
For “GGTCCATACCCAAGGCATCC (antisense; 2'-MOE modified, pattern not given here) [CTNN2B-2446 MOE]”, the “TLR9 100 nM” value was 0.687 and the “TLR9 500 nM” value was 0.453.
“GCGTATTATAGCCGATTAAC (antisense; 2'-MOE modified, pattern not given here) [NC1 2′MOE]” was tested, and the “TLR9 100 nM” value was 0.460 and the “TLR9 500 nM” value was 0.064.
With “GATGCTCCTCGGTCTCCCTT (antisense; 2'-MOE modified, pattern not given here) [CAMSAP1-1850 MOE]” the “TLR9 100 nM” value was 0.792 and the “TLR9 500 nM” value was 0.196.
“ATGTGATGGCCTCCCATCTC (antisense; 2'-MOE modified, pattern not given here) [HPRT-333 MOE]” was tested, and the “TLR9 100 nM” value was 0.900 and the “TLR9 500 nM” value was 0.918.
“GGTGTCCTTGCACGTGGCTT (antisense; 2'-MOE modified, pattern not given here) [EGFR-1016 MOE]” was tested, and the “TLR9 100 nM” value was 1.064 and the “TLR9 500 nM” value was 0.714.
With “GCGACTATACGCGCAATATG (antisense; 2'-MOE modified, pattern not given here) [NC5 2′MOE]” the “TLR9 100 nM” value was 0.395 and the “TLR9 500 nM” value was 0.035.
For “GCGGAGGTCTTGGCTTCGTG (antisense; 2'-MOE modified, pattern not given here) [MB21D1-526 MOE]”, the “TLR9 100 nM” value was 0.682 and the “TLR9 500 nM” value was 0.246.
In the case of “CTGTGATCTTGACATGCTGC (antisense; 2'-MOE modified, pattern not given here) [EGFR-2790 MOE]”, the “TLR9 100 nM” value is reported as 0.506 and the “TLR9 500 nM” value is reported as 0.298.
“GAGTCTCTGGAGCTTCCTCT (antisense; 2'-MOE modified, pattern not given here) [CAMSAP1-2456 MOE]” was tested, and the “TLR9 100 nM” value was 0.594 and the “TLR9 500 nM” value was 0.127.
